Test results taken from patent publication US12054714B2, “Peptide docking vehicle for targeted nucleic acid delivery” (Sirnaomics, Inc., priority 2019, dated 2024).
{GalNAc3} = trivalent GalNAc cluster through an NHC6 amino-hexyl linker

How the values were obtained:
TTR = test: Dose-response screen of GalNAc-conjugated siRNAs in primary mouse hepatocytes, bDNA read-out; assay type: cell-based; details: direct incubation 72 hours
Experimental: (§1) Dose-response screens for GalNAc-conjugated siRNAs (mTTR1-PDoV3-GalNAc3, mTTR1-PDoV2-GalNAc3, mTTR2-GalNAc3 positive control, mTTR2-GalNAc3 positive control) were performed using primary mouse hepatocytes for target TTR. The cell density was 40000 cells/96 well. The concentration was from: highest at 1 μM in 5-fold dilutions to lowest at […]. Cells were transfected by direct incubation for 72 hours. The data was read out by bDNA assay. The data was analyzed by XLfit software. TTR signal normalized to gapdh, mean of quadruplicates, mock-treated cells set=1, Xlfit for calculation of IC50 values. The primary hepatocytes used were purchased from Primacyt, Germany (lot MH181219), derived from CD 1 mice, and treated with siRNA right after thawing.
(§2) The two siRNAs were both conjugated to trivalent GalNAc clusters at the 3′ end (mTTR2 siRNA sequence was a fully modified sequence and 4 more additional PS linkages modification on the oligonucleotides than mTTR1. (Nair, et al., J. Am. Chem. Soc. 136:16958-16961(2014). Aha1-GaNAc3 positive control was used as a standard control, targeted to the housekeeper ahsa1. This was used as both negative and positive control, hybridizing the cell lysates either to the screening target or to an ahsa1-specific probe. Table e1 lists the sequences of the 2 control siRNAs and the structure of the GalNAc cluster. Table e1. Control siRNA sequence and targets. (Images discloses SEQ ID NOS 36, 47-48, 59, and 47-48, respectively, in order of appearance)

ahsa1 = test: Dose-response screen in primary mouse hepatocytes, ahsa1-specific probe (standard control); assay type: cell-based; details: 72 hours
Experimental: as §1, §2

Substance	IC80 (TTR; TTR signal normalized to gapdh) [nM]	IC50 (TTR; TTR signal normalized to gapdh, Xlfit) [nM]	Max. KD (TTR; highest concentration 1 μM) [%]	IC50 (ahsa1) [nM]	IC80 (ahsa1) [nM]	Max. KD (ahsa1) [%]
mTTR2-GalNAc3 positive control: fully modified siRNA against mouse TTR conjugated to trivalent GalNAc cluster at the 3′ end (SEQ ID NO: 39/40; Nair et al.) (chain 1 AACAGUGUUCUUGCUCUAUAA; chain 2 UUAUAGAGCAAGAACACUGUUUU; chain 1: linkages s2 o18 (s phosphorothioate, o phosphodiester), 3' {GalNAc3}, sugars by position and methylation of C not given here; chain 2: linkages s2 o18 s2 (s phosphorothioate, o phosphodiester), sugars by position and methylation of C not given here; fully modified, Nf 2'-fluoro, further chemistry not fully specified)	0.3	0.1	96	–	–	–
aha1-GalNAc3 positive control: standard control siRNA targeted to the housekeeper ahsa1, conjugated to trivalent GalNAc cluster at 3′ end (SEQ ID NO: 41/42) (chain 1 UCUCGUGGCCUUAAUGAAA; chain 2 UUUCAUUAAGGCCACGAGAUU; chain 1: linkages s2 o16 (s phosphorothioate, o phosphodiester), 3' {GalNAc3}, sugars by position and methylation of C not given here; chain 2: linkages s2 o16 s2 (s phosphorothioate, o phosphodiester), sugars by position and methylation of C not given here; further chemistry not fully specified)	–	–	–	1.5	5.9	96
